≈ marks a conversion by molar mass, not a printed value.
Legend:
Assay type in all cases: cell-based
[1] = system: Trichophyton rubrum (ATCCMYA4607); assay: Test Example 4 antifungal activity test, minimum inhibitory concentration (MIC100); settings: Sabouraud medium, 32° C. for 72 hours
Experimental: (§1) Test Microbial Strains: Trichophyton rubrum (ATCCMYA4607), and Microsporum canis (IFM63627)
(§2) The antifungal activity was studied by partially modifying the method of Test Example 2. Trichophyton rubrum was cultured in a Sabouraud medium and Microsporum canis was cultured in a 1/10 Sabouraud medium, at 32° C. for 168 hours to form spores. For Trichophyton rubrum, hyphae were peeled off from the surface of the medium and recovered in a tube, physiological saline (Otsuka Normal Saline; containing 9 g of sodium chloride in 1000 mL) was added, these were wholly admixed using a disposable loop (type 1 (1 μL)) for dispersion, and a spore suspension containing the hyphae was recovered. […] The spore suspensions containing the hyphae of Trichophyton rubrum and Microsporum canis, respectively, were filtered through a cell strainer ((40 μm). The spores were recovered from the filtrate by centrifugation (3500 rpm, 5 minutes) and washed twice with physiological saline, and then a spore suspension was prepared (1×10^7 spores/mL). 10 μL of the spore suspension was inoculated into a Sabouraud medium to which the test compound dissolved in DMSO was added to have a predetermined concentration. Trichophyton rubrum, Microsporum canis was cultured at 32° C. for 72 hours, then the presence or absence of colony growth was investigated, and the minimum inhibitory concentration (MIC100) was determined.

[2] = system: Microsporum canis (IFM63627); assay: as above; settings: Sabouraud medium, 32° C. for 72 hours
Experimental: as §1, §2

[3] = system: Trichophyton rubrum (ATCCMYA4607); assay: Test Example 5 antifungal activity test, minimum fungicidal concentration (MFC100) by treatment time
Experimental: as §1
(§3) Trichophyton rubrum was cultured in a Sabouraud medium and Microsporum canis was cultured in a 1/10 Sabouraud medium, at 32° C. for 168 hours to form spores. For Trichophyton rubrum, hyphae were peeled off from the surface of the medium and recovered in a tube, physiological saline (Otsuka Normal Saline; containing 9 g of sodium chloride in 1000 mL) was added, these were wholly admixed using a disposable loop (type 1 (1 μL)) for dispersion, and a spore suspension containing the hyphae was recovered. For Microsporum canis, 10 mL of physiological saline was added directly onto the medium, and the surface was rubbed using a disposable loop to recover a spore suspension containing hyphae. The spore suspensions containing the hyphae of Trichophyton rubrum and Microsporum canis, respectively, were filtered through a cell strainer (\40 μm). The spores were recovered from the filtrate by centrifugation (3500 rpm, 5 minutes) and washed twice with physiological saline, and then a spore suspension was prepared (1×10^7 spores/mL). 10 μL of the spore suspension was inoculated into 90 μL of physiological saline to which test compound dissolved in DMSO was added to have a predetermined concentration. Every time a predetermined time elapsed, 10 μL of a test liquid containing the spores was collected, the spores were recovered by centrifugation (3500 rpm, 5 minutes) and washed twice with physiological saline, and then a 10 μL spore suspension was prepared. The 10 μL spore suspension was spotted onto a Sabouraud medium and subjected to culturing at 32° C. for 72 hours, the presence or absence of colony growth was investigated, and the minimum fungicidal concentration (MFC100) was determined.

[4] = system: Microsporum canis (IFM63627); assay: as above
Experimental: as §1, §3

With `Cc1ccc(-c2nc(C#N)[nH]c2Cl)cc1Cl` [Compound No. 6, 5-Chloro-4-(3-chloro-4-methylphenyl)-1H-imidazole-2-carbonitrile] the MIC [1] was 5 µg/mL (≈ 19.8 µM), the MIC [2] was 5 µg/mL (≈ 19.8 µM) and the MFC ([3]; Treatment time 1 Hour) was 50 µg/mL (≈ 198 µM). For the same compound, the MFC ([3]; Treatment time 48 Hours) was 10 µg/mL (≈ 39.7 µM), the MFC ([3]; Treatment time 72 Hours) was 5 µg/mL (≈ 19.8 µM) and the MFC ([4]; Treatment time 24 Hours) was 50 µg/mL (≈ 198 µM). For the same compound, the MFC ([4]; Treatment time 96 Hours) was 10 µg/mL (≈ 39.7 µM).
